Biological target: Adrenergic receptor alpha-1 (Rattus norvegicus) (UniProt P15823+P23944+P43140)
Assay: Compound was tested for antihypertensive activity mediated through Alpha-1 adrenergic receptor in anesthetized rat
Format: functional

ED50: 0.25 mg/kg
Compound: O=C1Nc2ccccc2C2=NC(CN3CCN(c4ccccc4)CC3)CN12 (stereo unspecified)
